# Literature values, collected in patent US20130195797A1, “HIGH POTENCY FORMULATIONS OF VX-950” (VERTEX PHARMACEUTICALS INCORPORATED, priority 2012, published 2013).
# System: HCV
# Details: clinical trials
smiles,measurement,value
CCC[C@H](NC(=O)[C@@H]1[C@H]2CCC[C@H]2CN1C(=O)[C@@H](NC(=O)[C@@H](NC(=O)c1cnccn1)C1CCCCC1)C(C)(C)C)C(=O)C(=O)NC1CC1 [VX-950],antiviral activity / effective therapy against HCV,has shown antiviral activity
